In US20230365546A1, “5-SUBSTITUTED INDOLE 3-AMIDE DERIVATIVES, PREPARATION METHOD AND USE THEREOF” (ORIGIANT PHARMACEUTICAL CO., LTD, priority 2020, published 2023):
“And” between values parts separate entries of the source, which are not always exact repeats. Equal values may be shown once.

What was measured:
RIPK1 = RIPK1 (Homo sapiens (Human), UniProt Q13546); test: In vitro kinase assay (Eurofins Kinase Profiler), IC50; type: biochemical; settings: 0.001-10 μM, read-out: RIPK 1 (IC50)
PRP4(h) = PRP4(h) (Homo sapiens (Human), UniProt Q13523); test: Kinase Profiler 10 μM panel; type: biochemical
Procedure: (§1) In vitro kinase assays were conducted using Kinase Profiler services provided by Eurofins. The experimental method was as follows: the small molecule compound to be tested (0.001-10 μM), the protein kinase to be tested were incubated with a buffer containing substrate, 10 mM magnesium acetate, and [γ-^33P-ATP], the reaction was started by adding Mg\TPmix, after incubation for a period of time at room temperature, a 3% phosphate solution was added to the buffer to stop the reaction. Subsequently, 10 μL of the reaction mixture was quantitatively pipetted onto P30 filter paper, which was washed three times with 75 mM phosphate solution and then once with methanol. The P30 filter paper was air-dried and scintillation fluid was added for scintillation counting.

FGFR1(V561M)(h) = FGFR1(V561M)(h) (Homo sapiens (Human), UniProt P11362, V561M); test: Kinase Profiler 10 μM panel
Procedure: as §1

[1] = target: PI3 Kinase (p110a/p85a)(m) (Mus musculus (Mouse), UniProt P42337); test: Kinase Profiler 10 μM panel
Procedure: as §1

Fyn(h) = Fyn(h) (Homo sapiens (Human), UniProt P06241); test: Kinase Profiler 10 μM panel
Procedure: as §1

ACTR2(h) = ACTR2(h) (Homo sapiens (Human), UniProt P27037); test: Kinase Profiler 10 μM panel
Procedure: as §1

GRK5(h) = GRK5(h) (Homo sapiens (Human), UniProt P34947); test: Kinase Profiler 10 μM panel
Procedure: as §1

PI3KC2g(h) = PI3KC2g(h) (Homo sapiens (Human), UniProt O75747); test: Kinase Profiler 10 μM panel
Procedure: as §1

Hck(h) = Hck(h) (Homo sapiens (Human), UniProt P08631); test: Kinase Profiler 10 μM panel
Procedure: as §1

Hck(h) activated = Hck(h) activated (Homo sapiens (Human), UniProt P08631); test: Kinase Profiler 10 μM panel
Procedure: as §1

PKCβII(h) = PKCβII(h) (Homo sapiens (Human), UniProt P05771); test: Kinase Profiler 10 μM panel
Procedure: as §1

Bmx(h) = Bmx(h) (Homo sapiens (Human), UniProt P51813); test: Kinase Profiler 10 μM panel
Procedure: as §1

PKCδ(h) = PKCδ(h) (Homo sapiens (Human), UniProt Q05655); test: Kinase Profiler 10 μM panel
Procedure: as §1

IKKϵ(h) = IKKϵ(h) (Homo sapiens (Human), UniProt Q14164); test: Kinase Profiler 10 μM panel
Procedure: as §1

IR(h) = IR(h) (Homo sapiens (Human), UniProt P06213); test: Kinase Profiler 10 μM panel
Procedure: as §1

CaMKIV(h) = CaMKIV(h) (Homo sapiens (Human), UniProt Q16566); test: Kinase Profiler 10 μM panel
Procedure: as §1

CDK12/cyclinK(h) = CDK12/cyclinK(h) (Homo sapiens (Human), UniProt Q9NYV4); test: Kinase Profiler 10 μM panel
Procedure: as §1

Ros(h) = Ros(h) (Homo sapiens (Human), UniProt P08922); test: Kinase Profiler 10 μM panel
Procedure: as §1

MLK2(h) = MLK2(h) (Homo sapiens (Human), UniProt Q02779); test: Kinase Profiler 10 μM panel
Procedure: The experimental method was as follows: the small molecule compound to be tested (0.001-10 μM), the protein kinase to be tested were incubated with a buffer containing substrate, 10 mM magnesium acetate, and [γ-^33P-ATP], the reaction was started by adding Mg\TPmix, after incubation for a period of time at room temperature, a 3% phosphate solution was added to the buffer to stop the reaction. Subsequently, 10 μL of the reaction mixture was quantitatively pipetted onto P30 filter paper, which was washed three times with 75 mM phosphate solution and then once with methanol. The P30 filter paper was air-dried and scintillation fluid was added for scintillation counting.

STK25(h) = STK25(h) (Homo sapiens (Human), UniProt O00506); test: Kinase Profiler 10 μM panel
Procedure: as §1

DAPK1(h) = DAPK1(h) (Homo sapiens (Human), UniProt P53355); test: Kinase Profiler 10 μM panel
Procedure: as §1

TAO2(h) = TAO2(h) (Homo sapiens (Human), UniProt Q9UL54); test: Kinase Profiler 10 μM panel
Procedure: as §1

TBK1(h) = TBK1(h) (Homo sapiens (Human), UniProt Q9UHD2); test: Kinase Profiler 10 μM panel
MuSK(h) = MuSK(h) (Homo sapiens (Human), UniProt O15146); test: Kinase Profiler 10 μM panel
Procedure: as §1

Tie2(R849W)(h) = Tie2(R849W)(h) (Homo sapiens (Human), UniProt Q02763, R849W); test: Kinase Profiler 10 μM panel
Procedure: as §1

DRAK2(h) = DRAK2(h) (Homo sapiens (Human), UniProt O94768); test: Kinase Profiler 10 μM panel
Procedure: as §1

TNIK(h) = TNIK(h) (Homo sapiens (Human), UniProt Q9UKE5); test: Kinase Profiler 10 μM panel
Procedure: as §1

DYRK3(h) = DYRK3(h) (Homo sapiens (Human), UniProt O43781); test: Kinase Profiler 10 μM panel
Procedure: as §1

TSSK3(h) = TSSK3(h) (Homo sapiens (Human), UniProt Q96PN8); test: Kinase Profiler 10 μM panel
Procedure: as §1

PAK6(h) = PAK6(h) (Homo sapiens (Human), UniProt Q9NQU5); test: Kinase Profiler 10 μM panel
Procedure: as §1

EphB4(h) = EphB4(h) (Homo sapiens (Human), UniProt P54760); test: Kinase Profiler 10 μM panel
Procedure: as §1

WNK3(h) = WNK3(h) (Homo sapiens (Human), UniProt Q9BYP7); test: Kinase Profiler 10 μM panel
Procedure: as §1

FGFR1(h) = FGFR1(h) (Homo sapiens (Human), UniProt P11362); test: Kinase Profiler 10 μM panel
Procedure: as §1

PDK1(h) = PDK1(h) (Homo sapiens (Human), UniProt O15530); test: Kinase Profiler 10 μM panel
Procedure: as §1

Chain of FGFR1(V561M)(h) (P11362 22-822 V561M): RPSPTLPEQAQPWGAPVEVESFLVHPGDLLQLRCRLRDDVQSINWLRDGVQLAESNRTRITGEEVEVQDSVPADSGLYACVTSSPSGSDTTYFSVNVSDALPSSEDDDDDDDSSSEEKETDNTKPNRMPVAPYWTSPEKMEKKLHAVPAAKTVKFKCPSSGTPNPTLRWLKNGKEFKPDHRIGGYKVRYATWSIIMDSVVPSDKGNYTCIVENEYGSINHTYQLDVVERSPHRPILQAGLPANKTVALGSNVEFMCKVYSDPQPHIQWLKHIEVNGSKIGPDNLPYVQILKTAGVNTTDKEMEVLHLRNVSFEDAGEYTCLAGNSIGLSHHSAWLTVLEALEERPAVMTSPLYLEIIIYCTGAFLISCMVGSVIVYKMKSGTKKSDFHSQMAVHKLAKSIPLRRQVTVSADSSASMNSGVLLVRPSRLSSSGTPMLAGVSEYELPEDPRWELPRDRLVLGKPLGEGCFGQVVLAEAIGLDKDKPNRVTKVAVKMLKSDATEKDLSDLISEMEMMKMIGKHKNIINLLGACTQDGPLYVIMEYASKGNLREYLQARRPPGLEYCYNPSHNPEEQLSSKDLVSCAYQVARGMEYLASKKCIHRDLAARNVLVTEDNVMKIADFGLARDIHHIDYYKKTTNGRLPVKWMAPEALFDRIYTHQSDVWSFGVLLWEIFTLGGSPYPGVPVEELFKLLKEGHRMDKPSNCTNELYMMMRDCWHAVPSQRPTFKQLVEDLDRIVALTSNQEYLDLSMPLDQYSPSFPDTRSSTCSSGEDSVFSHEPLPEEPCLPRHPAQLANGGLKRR
Chain of DYRK3(h) (O43781 whole entry): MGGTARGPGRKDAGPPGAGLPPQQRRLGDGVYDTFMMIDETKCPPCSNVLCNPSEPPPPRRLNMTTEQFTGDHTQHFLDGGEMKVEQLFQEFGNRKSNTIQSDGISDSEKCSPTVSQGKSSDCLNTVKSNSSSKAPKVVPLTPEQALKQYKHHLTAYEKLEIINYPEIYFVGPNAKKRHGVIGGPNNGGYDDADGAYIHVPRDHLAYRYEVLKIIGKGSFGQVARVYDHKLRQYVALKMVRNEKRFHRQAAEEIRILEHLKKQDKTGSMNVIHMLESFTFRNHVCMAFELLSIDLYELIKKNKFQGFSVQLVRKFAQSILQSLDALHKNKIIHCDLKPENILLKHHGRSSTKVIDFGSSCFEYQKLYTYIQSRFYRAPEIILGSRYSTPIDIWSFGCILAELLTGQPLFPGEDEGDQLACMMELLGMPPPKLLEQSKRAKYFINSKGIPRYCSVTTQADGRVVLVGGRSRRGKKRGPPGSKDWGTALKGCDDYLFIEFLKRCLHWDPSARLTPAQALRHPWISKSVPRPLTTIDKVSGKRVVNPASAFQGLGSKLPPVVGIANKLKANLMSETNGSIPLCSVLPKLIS
Chain of Bmx(h) (P51813 whole entry): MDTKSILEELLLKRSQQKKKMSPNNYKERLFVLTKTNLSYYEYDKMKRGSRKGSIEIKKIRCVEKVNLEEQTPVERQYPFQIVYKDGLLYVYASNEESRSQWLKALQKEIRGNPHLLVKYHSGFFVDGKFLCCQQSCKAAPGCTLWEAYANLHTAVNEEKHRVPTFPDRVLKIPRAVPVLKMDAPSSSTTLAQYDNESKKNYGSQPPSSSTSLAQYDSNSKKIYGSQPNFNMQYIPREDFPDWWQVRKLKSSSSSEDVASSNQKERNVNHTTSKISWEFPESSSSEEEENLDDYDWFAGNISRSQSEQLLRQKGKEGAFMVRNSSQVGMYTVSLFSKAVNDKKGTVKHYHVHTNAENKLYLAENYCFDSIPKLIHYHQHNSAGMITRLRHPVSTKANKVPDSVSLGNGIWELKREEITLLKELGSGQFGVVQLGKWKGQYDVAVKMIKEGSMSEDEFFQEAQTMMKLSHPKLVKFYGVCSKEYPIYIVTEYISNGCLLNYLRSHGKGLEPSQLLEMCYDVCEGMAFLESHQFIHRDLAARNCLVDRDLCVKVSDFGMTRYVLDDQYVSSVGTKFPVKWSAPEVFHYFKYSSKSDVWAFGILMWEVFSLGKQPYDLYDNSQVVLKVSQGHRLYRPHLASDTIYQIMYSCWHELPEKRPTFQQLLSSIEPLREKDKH
Chain of Fyn(h) (P06241 whole entry): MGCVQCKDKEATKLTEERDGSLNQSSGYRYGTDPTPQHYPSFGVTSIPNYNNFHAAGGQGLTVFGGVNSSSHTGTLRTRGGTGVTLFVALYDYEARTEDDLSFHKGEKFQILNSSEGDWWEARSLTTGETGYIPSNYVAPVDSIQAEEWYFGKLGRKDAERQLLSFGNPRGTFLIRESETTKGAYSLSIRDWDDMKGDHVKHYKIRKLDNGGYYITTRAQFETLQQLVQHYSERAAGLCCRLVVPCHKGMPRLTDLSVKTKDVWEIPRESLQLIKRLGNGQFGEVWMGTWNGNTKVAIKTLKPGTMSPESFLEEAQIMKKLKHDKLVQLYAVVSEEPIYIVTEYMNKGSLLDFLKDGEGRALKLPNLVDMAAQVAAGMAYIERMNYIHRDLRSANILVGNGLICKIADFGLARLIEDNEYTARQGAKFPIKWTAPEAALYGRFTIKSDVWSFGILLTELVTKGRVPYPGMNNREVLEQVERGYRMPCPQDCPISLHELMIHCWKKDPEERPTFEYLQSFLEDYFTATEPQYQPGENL
Chain of PKCβII(h) (P05771 other isoform, or with tags, fused parts or gaps): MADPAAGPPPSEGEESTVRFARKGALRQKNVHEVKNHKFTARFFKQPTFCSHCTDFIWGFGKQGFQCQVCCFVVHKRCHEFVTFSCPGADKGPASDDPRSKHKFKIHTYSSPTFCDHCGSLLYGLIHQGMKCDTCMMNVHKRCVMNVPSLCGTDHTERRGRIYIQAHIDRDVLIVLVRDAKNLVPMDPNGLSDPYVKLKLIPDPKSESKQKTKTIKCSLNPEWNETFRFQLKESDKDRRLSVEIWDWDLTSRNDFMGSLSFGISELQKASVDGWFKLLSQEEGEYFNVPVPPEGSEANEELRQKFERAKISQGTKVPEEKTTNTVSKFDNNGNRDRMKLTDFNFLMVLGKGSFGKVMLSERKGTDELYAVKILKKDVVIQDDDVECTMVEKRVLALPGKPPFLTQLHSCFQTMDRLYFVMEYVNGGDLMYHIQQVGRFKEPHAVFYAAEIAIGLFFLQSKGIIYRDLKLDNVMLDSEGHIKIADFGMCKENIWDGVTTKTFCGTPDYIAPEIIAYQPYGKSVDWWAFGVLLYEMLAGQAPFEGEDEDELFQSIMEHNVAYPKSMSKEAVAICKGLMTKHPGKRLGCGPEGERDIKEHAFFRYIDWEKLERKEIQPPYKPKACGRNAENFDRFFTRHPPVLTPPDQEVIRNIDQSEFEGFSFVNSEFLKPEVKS
Chain of PI3 Kinase (p110a/p85a)(m) (P42337 whole entry): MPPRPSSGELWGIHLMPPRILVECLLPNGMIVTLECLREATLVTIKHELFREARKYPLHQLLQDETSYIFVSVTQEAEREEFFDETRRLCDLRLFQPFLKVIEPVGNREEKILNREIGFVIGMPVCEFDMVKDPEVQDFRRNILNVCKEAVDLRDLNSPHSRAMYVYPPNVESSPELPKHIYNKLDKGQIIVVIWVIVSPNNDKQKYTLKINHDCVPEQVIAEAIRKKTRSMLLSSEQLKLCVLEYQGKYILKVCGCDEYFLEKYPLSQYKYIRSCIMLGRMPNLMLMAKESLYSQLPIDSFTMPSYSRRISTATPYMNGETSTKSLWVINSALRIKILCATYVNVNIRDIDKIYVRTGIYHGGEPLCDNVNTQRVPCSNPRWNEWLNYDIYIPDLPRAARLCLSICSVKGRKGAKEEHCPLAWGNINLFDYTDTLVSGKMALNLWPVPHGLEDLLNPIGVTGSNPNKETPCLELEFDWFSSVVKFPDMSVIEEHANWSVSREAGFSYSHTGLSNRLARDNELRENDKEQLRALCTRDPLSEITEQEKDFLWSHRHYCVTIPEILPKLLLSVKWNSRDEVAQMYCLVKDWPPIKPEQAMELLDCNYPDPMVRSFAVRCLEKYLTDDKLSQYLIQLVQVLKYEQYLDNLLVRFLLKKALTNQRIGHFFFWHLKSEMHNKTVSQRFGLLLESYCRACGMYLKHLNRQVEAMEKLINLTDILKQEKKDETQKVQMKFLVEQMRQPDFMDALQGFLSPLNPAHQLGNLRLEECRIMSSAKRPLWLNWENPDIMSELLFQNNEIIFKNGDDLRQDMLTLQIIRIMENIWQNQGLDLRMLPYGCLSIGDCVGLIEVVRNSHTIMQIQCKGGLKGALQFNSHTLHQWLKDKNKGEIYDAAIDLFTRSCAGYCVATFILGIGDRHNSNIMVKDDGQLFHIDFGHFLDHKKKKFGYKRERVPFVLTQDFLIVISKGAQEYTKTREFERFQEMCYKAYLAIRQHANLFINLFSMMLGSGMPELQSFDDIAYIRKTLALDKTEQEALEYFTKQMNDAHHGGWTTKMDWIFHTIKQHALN
Chain of PI3 Kinase (p110a/p85a)(m) (P26450 whole entry partner): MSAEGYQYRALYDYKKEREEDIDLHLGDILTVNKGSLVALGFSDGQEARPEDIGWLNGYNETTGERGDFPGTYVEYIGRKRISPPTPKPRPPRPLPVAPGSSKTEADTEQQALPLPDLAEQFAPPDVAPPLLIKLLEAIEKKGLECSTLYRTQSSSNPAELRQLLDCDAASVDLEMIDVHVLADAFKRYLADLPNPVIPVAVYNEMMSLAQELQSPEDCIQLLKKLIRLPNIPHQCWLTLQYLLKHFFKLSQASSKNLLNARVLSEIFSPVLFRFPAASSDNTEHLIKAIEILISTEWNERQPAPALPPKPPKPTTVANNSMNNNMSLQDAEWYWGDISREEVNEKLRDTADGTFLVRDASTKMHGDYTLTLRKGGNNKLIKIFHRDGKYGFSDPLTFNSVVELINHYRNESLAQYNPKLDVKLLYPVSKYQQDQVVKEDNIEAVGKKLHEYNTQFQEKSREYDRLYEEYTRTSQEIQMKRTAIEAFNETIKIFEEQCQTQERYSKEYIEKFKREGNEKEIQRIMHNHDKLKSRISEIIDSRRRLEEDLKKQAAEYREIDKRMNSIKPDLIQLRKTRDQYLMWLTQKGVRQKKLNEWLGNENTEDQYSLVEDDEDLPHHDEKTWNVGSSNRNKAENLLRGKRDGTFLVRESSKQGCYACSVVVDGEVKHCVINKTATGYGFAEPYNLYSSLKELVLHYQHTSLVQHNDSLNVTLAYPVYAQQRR

SMILES: C[C@H](NC(=O)c1cn(C)c2ccc(-c3ccn4nc(NC(=O)C5CC5)nc4c3)cc12)c1cccc(F)c1 [Compound 94, (S)-5-(2-(cyclopropanecarboxamido)-[1,2,4]triazolo[1,5-a]pyridin-7-yl)-N-(1-(3-fluorophenyl)ethyl)-1-methyl-1H-indole-3-carboxamide]
- IC50 (RIPK1): 1 to 10 nM
- Inhibition ratio/% (PRP4(h)): 5%
- Inhibition ratio/% (FGFR1(V561M)(h)): 45% and 30%
- Inhibition ratio/% [1]: −16%
- Inhibition ratio/% (Fyn(h)): −43%
- Inhibition ratio/% (ACTR2(h)): −3%
- Inhibition ratio/% (GRK5(h)): 21%
- Inhibition ratio/% (PI3KC2g(h)): 24%
- Inhibition ratio/% (Hck(h)): −8%
- Inhibition ratio/% (Hck(h) activated): −12%
- Inhibition ratio/% (PKCβII(h)): 10%
- Inhibition ratio/% (Bmx(h)): 34%
- Inhibition ratio/% (PKCδ(h)): 48%
- Inhibition ratio/% (IKKϵ(h)): −15%
- Inhibition ratio/% (IR(h)): 27%
- Inhibition ratio/% (CaMKIV(h)): 21%
- Inhibition ratio/% (CDK12/cyclinK(h)): −8%
- Inhibition ratio/% (Ros(h)): −18%
- Inhibition ratio/% (MLK2(h)): 99%
- Inhibition ratio/% (STK25(h)): 26%
- Inhibition ratio/% (DAPK1(h)): 40%
- Inhibition ratio/% (TAO2(h)): −14%
- Inhibition ratio/% (TBK1(h)): 13%
- Inhibition ratio/% (MuSK(h)): 13%
- Inhibition ratio/% (Tie2(R849W)(h)): 16%
- Inhibition ratio/% (DRAK2(h)): 37%
- Inhibition ratio/% (TNIK(h)): 59%
- Inhibition ratio/% (DYRK3(h)): 10%
- Inhibition ratio/% (TSSK3(h)): 0%
- Inhibition ratio/% (PAK6(h)): 49%
- Inhibition ratio/% (EphB4(h)): 56%
- Inhibition ratio/% (WNK3(h)): −20%
- Inhibition ratio/% (FGFR1(h)): 70%
- Inhibition ratio/% (PDK1(h)): 18%

SMILES: C[C@H](NC(=O)c1c[nH]c2ccc(-c3ccc4nc(NC(=O)C5CC5)sc4c3)cc12)c1cccc(F)c1 [Compound 34, (S)-5-(2-(cyclopropanecarboxamido)benzo[d]thiazol-6-yl)-N-(1-(3-fluorophenyl)ethyl)-1H-indole-3-carboxamide]
- IC50 (RIPK1): 10 to 100 nM
- Inhibition ratio (PRP4(h)): 4%
- Inhibition ratio (FGFR1(V561M)(h)): 80%
- Inhibition ratio [1]: 43%
- Inhibition ratio (Fyn(h)): 43%
- Inhibition ratio (ACTR2(h)): 6%
- Inhibition ratio (GRK5(h)): 0%
- Inhibition ratio (PI3KC2g(h)): 76%
- Inhibition ratio (Hck(h)): 37%
- Inhibition ratio (Hck(h) activated): 26%
- Inhibition ratio (PKCβII(h)): 7%
- Inhibition ratio (Bmx(h)): 54%
- Inhibition ratio (PKCδ(h)): 7%
- Inhibition ratio (IKKϵ(h)): 19%
- Inhibition ratio (IR(h)): 36%
- Inhibition ratio (CaMKIV(h)): 20%
- Inhibition ratio (CDK12/cyclinK(h)): 21%
- Inhibition ratio (Ros(h)): 31%
- Inhibition ratio (MLK2(h)): 99%
- Inhibition ratio (STK25(h)): 2%
- Inhibition ratio (DAPK1(h)): 12%
- Inhibition ratio (TAO2(h)): 58%
- Inhibition ratio (TBK1(h)): 53%
- Inhibition ratio (MuSK(h)): 88%
- Inhibition ratio (Tie2(R849W)(h)): 86%
- Inhibition ratio (DRAK2(h)): 18%
- Inhibition ratio (TNIK(h)): 99%
- Inhibition ratio (DYRK3(h)): 48%
- Inhibition ratio (TSSK3(h)): −6%
- Inhibition ratio (PAK6(h)): −14%
- Inhibition ratio (EphB4(h)): 11%
- Inhibition ratio (WNK3(h)): 18%
- Inhibition ratio (FGFR1(h)): 72%
- Inhibition ratio (PDK1(h)): 19%
